Drawing on ChEMBL document CHEMBL4627299, “Computational discovery and biological evaluation of novel inhibitors targeting histone-lysine N-methyltransferase SET7” (Bioorg Med Chem, 2020), this text covers inhibition and IC50 for 22 compounds.

The term inhibition denotes how much of the control response was suppressed. The IC50 is the concentration at which inhibition is half-maximal. A higher IC50 goes with weaker potency in that assay.

Test [1] has as its target T1, Histone-lysine N-methyltransferase SETD7 (Homo sapiens) (UniProt Q8WTS6).
T1 sequence (whole entry): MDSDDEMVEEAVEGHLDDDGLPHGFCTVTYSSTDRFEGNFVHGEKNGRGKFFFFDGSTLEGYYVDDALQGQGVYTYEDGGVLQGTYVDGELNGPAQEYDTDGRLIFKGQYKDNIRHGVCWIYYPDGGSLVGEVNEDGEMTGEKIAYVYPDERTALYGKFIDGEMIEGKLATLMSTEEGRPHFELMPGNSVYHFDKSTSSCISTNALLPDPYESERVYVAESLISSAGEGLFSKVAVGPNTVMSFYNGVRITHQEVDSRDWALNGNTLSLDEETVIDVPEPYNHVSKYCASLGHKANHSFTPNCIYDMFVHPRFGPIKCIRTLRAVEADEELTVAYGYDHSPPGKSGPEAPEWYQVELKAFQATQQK
Nature of the test: Inhibition of human SET7 overexpressed in Escherichia coli BL21 (DE3) cells at 25 uM preincubated for 15 mins followed by addition of SAM as substrate and biotinylated Histone H3 (1-50) peptide measured after 30 mins by AlphaLISA assay relative to control.

The target of test [2] is T1, Histone-lysine N-methyltransferase SETD7 (Homo sapiens). Nature of the test: Inhibition of human SET7 overexpressed in Escherichia coli BL21 (DE3) cells at 50 uM preincubated for 15 mins followed by addition of SAM as substrate and biotinylated Histone H3 (1-50) peptide measured after 30 mins by AlphaLISA assay relative to control. A general note: Alpha assays give light when donor and acceptor beads are brought close together.

For test [3] the target is unchanged. As to the kind of experiment: Inhibition of human SET7 overexpressed in Escherichia coli BL21 (DE3) cells at 12.5 uM preincubated for 15 mins followed by addition of SAM as substrate and biotinylated Histone H3 (1-50) peptide measured after 30 mins by AlphaLISA assay relative to control.
The target in test [4] is T2, Histone-lysine N-methyltransferase SETD7 (Homo sapiens, UniProt Q8WTS6).
T2 sequence (Q8WTS6 whole entry): T1 sequence (whole entry)
As to the kind of experiment: Inhibition of human SET7 overexpressed in Escherichia coli BL21 (DE3) cells preincubated for 15 mins followed by addition of SAM as substrate and biotinylated Histone H3 (1-50) peptide measured after 30 mins by AlphaLISA assay relative to control.

Bounds are passed on as bounds.

Take `CCN1CCCC1CNC(=O)c1cc(S(=O)(=O)CC)c(N)cc1OC` (stereo not drawn): the values for the inhibition in test [1], in test [2] and in test [3] were 14%, 3% and 14%, respectively.

As for `Cc1oncc1C(=O)Nc1ccc(C(F)(F)F)cc1`, the inhibition in test [1] stood at 4%.

Consider `O=c1c(-c2ccc(O)cc2)coc2cc(O)ccc12`, for which the inhibition in test [1] stood at 6%; in test [2] it was 14%; in test [3] it was 5%.

In the case of `CC(C)=CCC1=C(O)C(=O)c2ccccc2C1=O`, the inhibition was 4% in test [1] and 3% in test [3].

Take `COC(=O)[C@H](Cc1ccccc1)NC(=O)[C@@H](N)CC(=O)O`: the inhibition worked out at 32% in test [1], 10% in test [2] and 17% in test [3].

With `C=CC(C)(C)c1cc(/C=C/C(=O)c2ccc(O)cc2)c(OC)cc1O`, the values for the inhibition in test [1], in test [2] and in test [3] were 28%, 39% and 17%, respectively.

Consider `Cc1cnc(NC(=O)C2=C(O)c3ccccc3S(=O)(=O)N2C)s1`, for which the figures for the inhibition in test [1], in test [2] and in test [3] were 29%, 23% and 18%, respectively.

In the case of `O=C1C[C@@H](c2ccc(O)c(O)c2)Oc2cc(O)cc(O)c21` [ERIODICTYOL], the IC50 in test [4] was > 200 µM.

For `O=c1c(O)c(-c2ccccc2)oc2cc(O)cc(O)c12` [GALANGIN], the IC50 in test [4] is > 200 µM.

As to `O=c1c(O)c(-c2ccc(O)cc2)oc2cc(O)cc(O)c12` [KAEMPFEROL], the half-maximal inhibitory concentration (IC50) in test [4] was > 200 µM.

Regarding `CC(C)=CC[C@@H](O)C1=CC(=O)c2c(O)ccc(O)c2C1=O` [SHIKONIN], the inhibition in test [1] turned out to be 72%; in test [2], 90%; in test [3] it was 50%. Moreover, inhibition in test [4] was half-maximal at 21.6 µM (IC50).

`CC(C)C[C@H](NC(=O)[C@H](Cc1ccccc1)NC(=O)c1cnccn1)B(O)O`: the values for the inhibition in test [1], in test [2] and in test [3] were 19%, 24% and 18%, respectively.

Regarding `CCn1cc(C(=O)O)c(=O)c2cc(F)c(N3CCNC(C)C3)c(F)c21` (stereo not drawn), the inhibition in test [1] was found to be 23%; in test [2] it was 14%; in test [3], 19%.

Consider `COc1cc(O)c(CC=C(C)C)c(O)c1C(=O)/C=C/c1ccc(O)cc1`, for which the figures for the inhibition in test [1], in test [2] and in test [3] were 11%, 18% and 9%, respectively.

As for `Cc1cc([N+](=O)[O-])ccc1NS(=O)(=O)c1cc(Cl)ccc1Cl`, the inhibition worked out at 26% in test [1], 26% in test [2] and 17% in test [3].

Consider `COc1c(O)cc(O)c2c(=O)cc(-c3ccccc3)oc12`, for which the inhibition in test [1] was found to be 10%; in test [2], 4%; in test [3] it was 19%.

Turning to `N[C@@H](CC(=O)N1CCn2c(nnc2C(F)(F)F)C1)Cc1cc(F)c(F)cc1F`, in test [1], the inhibition is 6%.

For `COc1ccc(-c2oc3cc(O)cc(O)c3c(=O)c2O)cc1` [KAEMPFERIDE], in test [4], the IC50 was > 200 µM.

For the compound `O=C(N/N=C/c1ccc([N+](=O)[O-])o1)c1ccc(O)cc1`, the inhibition came to 18% in test [1], 7% in test [2] and 8% in test [3].

With `O=c1cc(-c2ccc(O)c(O)c2)oc2cc(O)cc(O)c12` [LUTEOLIN], the IC50 in test [4] amounted to 6.08 µM.

Take `O=c1c(O)c(-c2ccc(O)cc2O)oc2cc(O)cc(O)c12` [MORIN]: the figures for the inhibition in test [1], in test [2] and in test [3] were 62%, 87% and 40%, respectively. This compound showed an IC50 in test [4] of 6.02 µM.

In the case of `O=C(Nc1c(Cl)cncc1Cl)c1ccc(OC(F)F)c(OCC2CC2)c1`, the inhibition in test [1] was determined as 19%; in test [2] it was 23%; in test [3], 27%.
